In PubChem BioAssay AID312 (DTP/NCI, 2004):
Where “and” joins values, the source holds several entries; their conditions need not be identical. Equal values may be shown once. Toxic doses and inconclusive results are not listed.

System: BDF1 mice, C1498 leukemia ip, median survival T/C
Experiment: NCI In Vivo Anticancer Drug Screen. Data for tumor model C1498 Myeloid Leukemia (intraperitoneal) in B6D2F1 (BDF1) mice
Conditions: endpoint: median survival time, schedule: Q01DX010 (ip), higher = longer survival
Protocol: The antitumor activity of compounds was measured in mice bearing transplantable tumors. Survival or tumor size were measured and the results are expressed as the measurement made in the treated group (T) divided by the measurement made in the vehicle treated control group (C). The tumor model used in this assay is C1498 Myeloid Leukemia (intraperitoneal) in B6D2F1 (BDF1) mice

[1] = dose: 6.25 mg/kg/injection, vehicle: saline
[2] = dose: 1.25 mg/kg/injection, vehicle: saline
[3] = dose: 2.5 mg/kg/injection, vehicle: saline
[4] = dose: 5.0 mg/kg/injection, vehicle: saline
[5] = dose: 10.0 mg/kg/injection, vehicle: saline
[6] = dose: 4.0 mg/kg/injection, vehicle: saline
[7] = dose: 16.0 mg/kg/injection, vehicle: saline
[8] = dose: 31.3 mg/kg/injection, vehicle: saline
[9] = dose: 62.5 mg/kg/injection, vehicle: saline
[10] = dose: 125.0 mg/kg/injection, vehicle: saline
[11] = dose: 250.0 mg/kg/injection, vehicle: saline
[12] = dose: 500.0 mg/kg/injection, vehicle: saline
[13] = dose: 8.0 mg/kg/injection, vehicle: saline
[14] = dose: 32.0 mg/kg/injection, vehicle: saline

Nc1nc(N)c2nc(CNc3ccc(C(=O)NC(CCC(=O)O)C(=O)O)cc3)cnc2n1 (stereo not given)
T/C (dose: 0.05 mg/kg/injection, vehicle: other): 100 % of control and 103 % of control
T/C (dose: 0.1 mg/kg/injection, vehicle: other): 92 % of control and 100 % of control
T/C (dose: 0.2 mg/kg/injection, vehicle: other): 100 % of control
T/C (dose: 0.4 mg/kg/injection, vehicle: other): 92 % of control

O=C(O)CCCc1ccc(N(CCCl)CCCl)cc1
T/C (dose: 3.13 mg/kg/injection, vehicle: saline): 110 % of control
T/C [1]: 120 % of control

N=[N+]=CC(=O)OCC(N)C(=O)O (stereo not given)
T/C [1]: 150 % of control

CS(=O)(=O)OCCN(CCOS(C)(=O)=O)c1ccc(N=O)cc1
T/C (dose: 0.25 mg/kg/injection, vehicle: saline): 122 % of control

O=C(O)c1[nH]c(=O)[nH]c(=O)c1F
T/C [2]: 116 % of control and 118 % of control
T/C [3]: 122 % of control
T/C [4]: 158 % of control and 163 % of control
T/C [5]: 95 % of control and 109 % of control

N=C(N)c1ccc(Nc2ccc(C(=N)N)cc2)cc1
T/C (dose: 1.5 mg/kg/injection, vehicle: saline): 100 % of control
T/C (dose: 3.0 mg/kg/injection, vehicle: saline): 90 % of control
T/C (dose: 6.0 mg/kg/injection, vehicle: saline): 86 % of control
T/C (dose: 12.0 mg/kg/injection, vehicle: saline): 86 % of control

C=CC(CN1CC1)OC(C)=O (stereo not given)
T/C (dose: 2.0 mg/kg/injection, vehicle: saline): 104 % of control
T/C [6]: 122 % of control
T/C [7]: 104 % of control

COc1ccc2c(c1OC)C(=O)O[C@@H]2[C@H]1c2c(cc3c(c2OC)OCO3)CCN1C
T/C (dose: 15.6 mg/kg/injection, vehicle: saline): 100 % of control
T/C [8]: 95 % of control and 100 % of control (2×)
T/C [9]: 87 % of control and 90 % of control (2×)
T/C [10]: 86 % of control and 87 % of control and 90 % of control
T/C [11]: 90 % of control

CCOC(N)=O
T/C [10]: 95 % of control and 104 % of control
T/C [11]: 95 % of control and 100 % of control
T/C [12]: 95 % of control and 109 % of control

CC(CCC(C)OS(C)(=O)=O)OS(C)(=O)=O (stereo not given)
T/C [6]: 109 % of control
T/C [13]: 95 % of control
T/C [7]: 100 % of control
T/C [14]: 104 % of control

Nc1c(Br)cc2c(c1Br)Cc1cc([N+](=O)[O-])ccc1-2
T/C [8]: 91 % of control
T/C [9]: 91 % of control and 100 % of control
T/C [10]: 91 % of control
T/C [11]: 91 % of control and 95 % of control
T/C [12]: 95 % of control

CC[n+]1c(-c2ccccc2)c2cc(N)ccc2c2ccc(N)cc21
T/C [2]: 110 % of control
T/C [3]: 105 % of control and 109 % of control
T/C [4]: 100 % of control and 110 % of control
T/C [5]: 100 % of control and 110 % of control
T/C (dose: 20.0 mg/kg/injection, vehicle: saline): 100 % of control

CC(=O)Nc1ccc2nc3ccc(NC(C)=O)cc3[n+](-c3ccccc3)c2c1
T/C (dose: 25.0 mg/kg/injection, vehicle: saline): 107 % of control
T/C (dose: 50.0 mg/kg/injection, vehicle: saline): 96 % of control
T/C (dose: 100.0 mg/kg/injection, vehicle: saline): 88 % of control
T/C (dose: 200.0 mg/kg/injection, vehicle: saline): 88 % of control

COc1cc(C(=O)O)c2c(c1C)OC(=O)c1c(C)cc(O)c(C=O)c1O2
T/C [13]: 100 % of control
T/C [7]: 108 % of control
T/C [14]: 95 % of control

O[C@H](CN1CC1)[C@@H](O)CN1CC1
T/C (dose: 62.5 micrograms/kg/injection, vehicle: saline): 123 % of control
T/C (dose: 500.0 micrograms/kg/injection, vehicle: saline): 173 % of control
